Measurements: the supplement of paper PMC11451515

Tested on: SEM cells
Assay: cell viability relative to DMSO control; higher = less cytotoxic
Details: 48 h
Summary of the method: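 In 1536-well plates, 5 μl of leukemia cells were seeded per well: 500 cells/well for NOMO1 or SEM and 1000 cells/well for P12-Ichikawa. Each line had first been adapted for at least four passages in each medium. Library compounds in DMSO were pin-dosed at 11 threefold concentrations between 47 μM and 0.79 nM, and CellTiter-Glo One luminescence was read after 48 h at 37°C. Viability is a per-plate percentage relative to DMSO wells, with cell-free wells as background.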

[1] = HPLM + 10% dialyzed FBS, 0.000781 µM
[2] = HPLM + 10% dialyzed FBS, 0.00234 µM
[3] = HPLM + 10% dialyzed FBS, 0.00702 µM
[4] = HPLM + 10% dialyzed FBS, 0.0211 µM
[5] = HPLM + 10% dialyzed FBS, 0.0632 µM
[6] = HPLM + 10% dialyzed FBS, 0.19 µM
[7] = HPLM + 10% dialyzed FBS, 0.569 µM
[8] = HPLM + 10% dialyzed FBS, 1.71 µM
[9] = HPLM + 10% dialyzed FBS, 5.12 µM
[10] = HPLM + 10% dialyzed FBS, 15.4 µM
[11] = HPLM + 10% dialyzed FBS, 46.1 µM
[12] = RPMI 5 mM glucose + 10% FBS, 0.000781 µM
[13] = RPMI 5 mM glucose + 10% FBS, 0.00234 µM
[14] = RPMI 5 mM glucose + 10% FBS, 0.00702 µM
[15] = RPMI 5 mM glucose + 10% FBS, 0.0211 µM
[16] = RPMI 5 mM glucose + 10% FBS, 0.0632 µM
[17] = RPMI 5 mM glucose + 10% FBS, 0.19 µM
[18] = RPMI 5 mM glucose + 10% FBS, 0.569 µM
[19] = RPMI 5 mM glucose + 10% FBS, 1.71 µM
[20] = RPMI 5 mM glucose + 10% FBS, 5.12 µM
[21] = RPMI 5 mM glucose + 10% FBS, 15.4 µM
[22] = RPMI 5 mM glucose + 10% FBS, 46.1 µM
[23] = RPMI 5 mM glucose + 10% dialyzed FBS, 0.000781 µM
[24] = RPMI 5 mM glucose + 10% dialyzed FBS, 0.00234 µM
[25] = RPMI 5 mM glucose + 10% dialyzed FBS, 0.00702 µM
[26] = RPMI 5 mM glucose + 10% dialyzed FBS, 0.0211 µM
[27] = RPMI 5 mM glucose + 10% dialyzed FBS, 0.0632 µM
[28] = RPMI 5 mM glucose + 10% dialyzed FBS, 0.19 µM
[29] = RPMI 5 mM glucose + 10% dialyzed FBS, 0.569 µM
[30] = RPMI 5 mM glucose + 10% dialyzed FBS, 1.71 µM
[31] = RPMI 5 mM glucose + 10% dialyzed FBS, 5.12 µM
[32] = RPMI 5 mM glucose + 10% dialyzed FBS, 15.4 µM
[33] = RPMI 5 mM glucose + 10% dialyzed FBS, 46.1 µM

| Structure (SMILES) | cell viability [1] [%] | cell viability [2] [%] | cell viability [3] [%] | cell viability [4] [%] | cell viability [5] [%] | cell viability [6] [%] | cell viability [7] [%] | cell viability [8] [%] | cell viability [9] [%] | cell viability [10] [%] | cell viability [11] [%] | cell viability [12] [%] | cell viability [13] [%] | cell viability [14] [%] | cell viability [15] [%] | cell viability [16] [%] | cell viability [17] [%] | cell viability [18] [%] | cell viability [19] [%] | cell viability [20] [%] | cell viability [21] [%] | cell viability [22] [%] | cell viability [23] [%] | cell viability [24] [%] | cell viability [25] [%] | cell viability [26] [%] | cell viability [27] [%] | cell viability [28] [%] | cell viability [29] [%] | cell viability [30] [%] | cell viability [31] [%] | cell viability [32] [%] | cell viability [33] [%] |
| --- | --- | --- | --- | --- | --- | --- | --- | --- | --- | --- | --- | --- | --- | --- | --- | --- | --- | --- | --- | --- | --- | --- | --- | --- | --- | --- | --- | --- | --- | --- | --- | --- | --- |
| NC(=O)c1cnc(-c2ccc(C3(N)CCC3)cc2)c(-c2ccccc2)c1 | 110 | 120 | 137 | 111 | 111 | 127 | 133 | 90.7 | 73.2 | 50.3 | 30.9 | 120 | 134 | 123 | 106 | 108 | 127 | 130 | 85.1 | 78 | 43.2 | 24.5 | 121 | 125 | 127 | 120 | 123 | 120 | 133 | 91.5 | 67 | 43.5 | 35.9 |
| COc1cccc(Nc2c(C(N)=O)cnc3c(C)cc([S+](=O)([O-])c4cccc(C(=O)N(C)C)c4)cc23)c1 | 119 | 113 | 134 | 130 | 114 | 128 | 144 | 126 | 128 | 134 | 126 | 124 | 123 | 123 | 136 | 141 | 137 | 142 | 134 | 138 | 137 | 119 | 123 | 130 | 119 | 129 | 150 | 142 | 158 | 146 | 135 | 128 | 118 |
| Clc1ccccc1C(c1ccccc1)(c1ccccc1)n1cccn1 | 104 | 121 | 119 | 123 | 113 | 130 | 118 | 124 | 126 | 107 | 121 |  |  |  |  |  |  |  |  |  |  |  | 124 | 129 | 124 | 130 | 138 | 121 | 124 | 122 | 137 | 122 | 144 |
| CN1\N=N/C2=C(N=C[N]2C1=O)C(N)=O | 112 | 114 | 132 | 111 | 121 | 88.2 | 60.9 | 57.7 | 51.2 | 38.7 | 25.3 | 85.8 | 102 | 106 | 86.2 | 88.5 | 67.7 | 47.6 | 50.6 | 41.9 | 28.4 | 24.1 | 105 | 115 | 139 | 116 | 113 | 78.7 | 58.7 | 37.4 | 31.9 | 28.9 | 20.5 |
